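In this assay, cells in 96-well plates receive the compound at five concentrations for 48 hours. Endpoints are linearly interpolated between the surrounding concentrations. GI50 is the concentration that inhibits growth by half.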 Calls of active or inactive are those of the source. No stated cut-off is given here; in the data, active = GI50 up to about 1.1 µM and inactive = higher.
Experiments:
Test in all cases: DTP human tumour cell line panel, 48 h
NCI-H226 = system: NCI-H226
COLO 205 = system: COLO 205
SNB-75 = system: SNB-75
HOP-92 = system: HOP-92
NCI-H460 = system: NCI-H460
DLD-1 = system: DLD-1
UO-31 = system: UO-31
OVCAR-5 = system: OVCAR-5
SR = system: SR
NCI-H23 = system: NCI-H23
UACC-257 = system: UACC-257
HCC 2998 = system: HCC 2998
OVCAR-3 = system: OVCAR-3
EKVX = system: EKVX
786-0 = system: 786-0
LOX IMVI = system: LOX IMVI
A498 = system: A498
SF-539 = system: SF-539
UACC-62 = system: UACC-62
CAKI-1 = system: CAKI-1
IGROV-1 = system: IGROV-1
RPMI-8226 = system: RPMI-8226
SK-MEL-2 = system: SK-MEL-2
XF498 = system: XF498
SK-OV-3 = system: SK-OV-3
K562 = system: K562
HL-60 = system: HL-60
SNB-19 = system: SNB-19
SK-MEL-5 = system: SK-MEL-5
RXF 631 = system: RXF 631
HCT-116 = system: HCT-116
U-251 = system: U-251
OVCAR-4 = system: OVCAR-4
LXFL 529 = system: LXFL 529
M14 = system: M14
TK-10 = system: TK-10
DMS-273 = system: DMS-273
SW-620 = system: SW-620
DMS-114 = system: DMS-114
MOLT-4 = system: MOLT-4
OVCAR-8 = system: OVCAR-8
Malme-3M = system: Malme-3M
HOP-62 = system: HOP-62
RXF 393 = system: RXF 393
HOP-18 = system: HOP-18
SF-295 = system: SF-295
HCT-15 = system: HCT-15
NCI-H522 = system: NCI-H522
A549 = system: A549
KM-20L2 = system: KM-20L2
SF-268 = system: SF-268
SNB-78 = system: SNB-78
KM12 = system: KM12
CCRF-CEM = system: CCRF-CEM
SN12C = system: SN12C
HT-29 = system: HT-29
ACHN = system: ACHN
M19-MEL = system: M19-MEL
SK-MEL-28 = system: SK-MEL-28

Structure (SMILES): CC(C)C1(O)C(c2ccccc2)=C(c2ccccc2)C(c2ccccc2)=C1c1ccccc1
- GI50 (NCI-H226): 7.26 µM (inactive)
- GI50 (COLO 205): 10.1 µM (inactive)
- GI50 (SNB-75): 12.3 µM (inactive)
- GI50 (HOP-92): 4.38 µM (inactive)
- GI50 (NCI-H460): 6.95 µM (inactive)
- GI50 (DLD-1): 5.87 µM (inactive)
- GI50 (UO-31): 2.46 µM (inactive)
- GI50 (OVCAR-5): 17.5 µM (inactive)
- GI50 (SR): 2.96 µM (inactive)
- GI50 (NCI-H23): 9.59 µM (inactive)
- GI50 (UACC-257): 5.36 µM (inactive)
- GI50 (HCC 2998): 8.69 µM (inactive)
- GI50 (OVCAR-3): 4.71 µM (inactive)
- GI50 (EKVX): 5.28 µM (inactive)
- GI50 (786-0): 5.78 µM (inactive)
- GI50 (LOX IMVI): 6.59 µM (inactive)
- GI50 (A498): 15.2 µM (inactive)
- GI50 (SF-539): 12.5 µM (inactive)
- GI50 (UACC-62): 7.59 µM (inactive)
- GI50 (CAKI-1): 11.7 µM (inactive)
- GI50 (IGROV-1): 6.15 µM (inactive)
- GI50 (RPMI-8226): 2.28 µM (inactive)
- GI50 (SK-MEL-2): 5.33 µM (inactive)
- GI50 (XF498): 2.96 µM (inactive)
- GI50 (SK-OV-3): 15.2 µM (inactive)
- GI50 (K562): 3.52 µM (inactive)
- GI50 (HL-60): 2.65 µM (inactive)
- GI50 (SNB-19): 21.8 µM (inactive)
- GI50 (SK-MEL-5): 10.6 µM (inactive)
- GI50 (RXF 631): 3.58 µM (inactive)
- GI50 (HCT-116): 3.61 µM (inactive)
- GI50 (U-251): 5.11 µM (inactive)
- GI50 (OVCAR-4): 5.73 µM (inactive)
- GI50 (LXFL 529): 5.19 µM (inactive)
- GI50 (M14): 6.95 µM (inactive)
- GI50 (TK-10): 5.74 µM (inactive)
- GI50 (DMS-273): 4.46 µM (inactive)
- GI50 (SW-620): 6.12 µM (inactive)
- GI50 (DMS-114): 3.4 µM (inactive)
- GI50 (MOLT-4): 3.21 µM (inactive)
- GI50 (OVCAR-8): 10.3 µM (inactive)
- GI50 (Malme-3M): 10.4 µM (inactive)
- GI50 (HOP-62): 12.1 µM (inactive)
- GI50 (RXF 393): 2.82 µM (inactive)
- GI50 (HOP-18): 10.9 µM (inactive)
- GI50 (SF-295): 12.6 µM (inactive)
- GI50 (HCT-15): 5.22 µM
- GI50 (NCI-H522): 4.35 µM (inactive)
- GI50 (A549): 6.76 µM (inactive)
- GI50 (KM-20L2): 8.32 µM (inactive)
- GI50 (SF-268): 4.49 µM (inactive)
- GI50 (SNB-78): 11.6 µM (inactive)
- GI50 (KM12): 4.9 µM (inactive)
- GI50 (CCRF-CEM): 5.09 µM (inactive)
- GI50 (SN12C): 5.31 µM (inactive)
- GI50 (HT-29): 4.26 µM (inactive)

Structure (SMILES): C[n+]1[se]c2ccccc2c1Cl
- GI50 (NCI-H226): 25.6 µM (inactive)
- GI50 (COLO 205): > 43.9 µM (inactive)
- GI50 (SNB-75): 17.6 µM (inactive)
- GI50 (ACHN): > 48.8 µM (inactive)
- GI50 (HOP-92): 7.31 µM (inactive)
- GI50 (NCI-H460): 35.3 µM (inactive)
- GI50 (DLD-1): 25.7 µM (inactive)
- GI50 (UO-31): 24.8 µM (inactive)
- GI50 (OVCAR-5): > 52.1 µM (inactive)
- GI50 (NCI-H23): 20.1 µM (inactive)
- GI50 (UACC-257): 17.9 µM (inactive)
- GI50 (HCC 2998): > 47.8 µM (inactive)
- GI50 (OVCAR-3): 27 µM (inactive)
- GI50 (EKVX): 24.1 µM (inactive)
- GI50 (786-0): > 45 µM (inactive)
- GI50 (LOX IMVI): 19.9 µM (inactive)
- GI50 (M19-MEL): 10.3 µM (inactive)
- GI50 (A498): > 59.4 µM (inactive)
- GI50 (SF-539): 19.3 µM (inactive)
- GI50 (UACC-62): 17.7 µM (inactive)
- GI50 (CAKI-1): > 41.8 µM (inactive)
- GI50 (IGROV-1): 31 µM (inactive)
- GI50 (RPMI-8226): 33.1 µM (inactive)
- GI50 (SK-MEL-2): 11.7 µM (inactive)
- GI50 (XF498): 37.2 µM (inactive)
- GI50 (SK-OV-3): > 89.3 µM (inactive)
- GI50 (K562): 36.4 µM (inactive)
- GI50 (HL-60): 7.89 µM (inactive)
- GI50 (SNB-19): > 67.8 µM (inactive)
- GI50 (SK-MEL-5): 16.6 µM (inactive)
- GI50 (RXF 631): 25.1 µM (inactive)
- GI50 (HCT-116): 16.9 µM (inactive)
- GI50 (U-251): 30.9 µM (inactive)
- GI50 (OVCAR-4): 31 µM (inactive)
- GI50 (LXFL 529): 28.1 µM (inactive)
- GI50 (M14): 13.7 µM (inactive)
- GI50 (TK-10): > 43.4 µM (inactive)
- GI50 (DMS-273): 20 µM (inactive)
- GI50 (SW-620): 20 µM (inactive)
- GI50 (DMS-114): 35.3 µM (inactive)
- GI50 (MOLT-4): 13.5 µM (inactive)
- GI50 (OVCAR-8): 45 µM (inactive)
- GI50 (Malme-3M): 23.3 µM (inactive)
- GI50 (HOP-62): > 40.7 µM (inactive)
- GI50 (RXF 393): 19.5 µM (inactive)
- GI50 (HOP-18): 20.7 µM (inactive)
- GI50 (SF-295): 21.7 µM (inactive)
- GI50 (HCT-15): 24.7 µM
- GI50 (NCI-H522): 20.3 µM (inactive)
- GI50 (SK-MEL-28): 23.4 µM (inactive)
- GI50 (A549): 32 µM (inactive)
- GI50 (KM-20L2): > 51.1 µM (inactive)
- GI50 (SF-268): 20.9 µM (inactive)
- GI50 (SNB-78): 27.8 µM (inactive)
- GI50 (KM12): > 40.2 µM (inactive)
- GI50 (CCRF-CEM): 8.67 µM (inactive)
- GI50 (SN12C): 15.5 µM (inactive)
- GI50 (HT-29): 28.4 µM (inactive)

— ChEMBL document CHEMBL1201862, “PubChem BioAssay data set” (2004)
